pEC50: −log10 of the molar value. “And” between values parts separate entries of the source, which are not always exact repeats. Equal entries are not always repeated.
How the values were obtained:
[1] = tested on: GT1a L159F NS5B mutant replicon; assay: HCV NS5B mutant replicon assay, GT1a L159F; format: cell-based; conditions: Hepatitis C virus, Huh-7, 72 h, read-out: GT1a L159F EC50
Procedure: (§1) The antiviral activity of the test compounds was assessed in the wild type GT1b (Con1), GT1a (H77), and GT1b/2a, GT1b/3a, GT1b/4a and GT1b/5a NS5B chimeric replicons, as well as the NS5B mutant replicons listed in Table 2a and 2b.
(§2) The HCV replicon mutants were generated by site-directed mutagenesis (SDM). The SDM was performed by PCR and the PCR fragments were inserted into the backbone replicon construct. The inserted PCR fragments and the mutants were confirmed by sequencing.
(§3) All the replicon assays were luciferase based in Huh-7 cells, either in stable format (GT1b and GT1a) or by transient transfection by electroporation (chimeric and mutant replicons). For a standard HCV replicon assay, stable or transiently transfected Huh-7 cells were seeded in 96-well plates (5,000 cells/well), cultured in DMEM containing 10% FBS, and incubated at 37° C., 5% CO2. On the following day, test compounds were diluted with assay media and added to the appropriate wells (final DMSO concentration in the cell culture medium was 0.5%). Assay reference positive control was included in each run to ensure assay performance. Cells were incubated at 37° C., 5% CO2 for 72 hours, at which time the cells were still sub-confluent. The antiviral activity was determined by measuring replicon reporter firefly luciferase activity using Bright Glo kit in accordance with the protocol provided by the supplier (Promega). The toxicity of the test compounds was assessed by CytoTox-1 cell proliferation assay (Promega). The half maximal effective concentration (EC50) and the half maximal toxic concentration (TC50) values were calculated using the GraphPad Prism software.

GT1b (Con1) HCV replicon = assay: HCV replicon assay, wild type GT1b (Con1), luciferase based, stable format; format: cell-based, hepatitis C virus; conditions: Huh-7 cells, 72 hours
Procedure: as §1, §3

[2] = Nucleoside phosphoester stability in simulated intestinal fluid; format: in vitro ADME; conditions: simulated gi fluid, 2 μM, pH 6.8
Procedure: Test compounds at 2 μM were incubated at 37° C. with simulated intestinal fluid (SIF), which contains 0.68% (w/v) monobasic potassium phosphate and 1% (w/v) pancreatin in ultra-pure water (pH 6.8). Duplicate samples were used. Samples were removed at 0, 15, 30, 60, 120, 360 and 1440 min, immediately mixed with cold acetonitrile containing an internal standard (IS), and stored at −80° C. before analysis. Chlorambucil was used as a positive control. Samples were analyzed by a LC/MS/MS method, and disappearance of test compound was assessed by comparison of peak area ratios of analyte/IS and reported as % test compound remaining at each time point.

GT1a (H77) HCV replicon = assay: HCV replicon assay, wild type GT1a (H77), luciferase based, stable format; format: cell-based, hepatitis C virus; conditions: Hepatitis C virus, GT1A, Huh-7, 72 h, Huh-7 cells
Procedure: as §1, §3

[3] = tested on: GT1b L159F NS5B mutant replicon; assay: HCV NS5B mutant replicon assay, GT1b L159F; format: cell-based; conditions: Hepatitis C virus, Huh-7, 72 h, read-out: GT1b L159F EC50
Procedure: as §1, §2, §3

[4] = tested on: GT1b/5a NS5B chimeric replicon; assay: HCV replicon assay, GT1b/5a NS5B chimeric replicon, transient transfection; format: cell-based, hepatitis C virus; conditions: Hepatitis C virus, Huh-7, 72 h, read-out: GT5a EC50, GT1b/5a NS5B chimeric replicon, Huh-7 cells, luciferase, 72 hours
Procedure: as §1
(§4) To generate HCV NS5B chimeric replicons, the GT1 b replicon was used as a backbone with the NS5B gene replaced with the NS5B gene of GT2a, GT3a, GT4a and GT5a derived from clinical isolates. These NS5B genes were cloned into the GT1b backbone and were confirmed by sequencing.
as §3

[5] = tested on: GT3a V321A NS5B mutant replicon; assay: HCV NS5B mutant replicon assay, GT3a V321A; format: cell-based; conditions: Hepatitis C virus, Huh-7, 72 h, read-out: GT3a V321A EC50
Procedure: as §1, §4, §2, §3

[6] = tested on: GT1b S282T NS5B mutant replicon; assay: HCV NS5B mutant replicon assay, GT1b S282T; format: cell-based; conditions: Hepatitis C virus, Huh-7, 72 h, read-out: GT1b S282T EC50
Procedure: as §1, §2, §3

[7] = tested on: GT1b/4a NS5B chimeric replicon; assay: HCV replicon assay, GT1b/4a NS5B chimeric replicon, transient transfection; format: cell-based, hepatitis C virus; conditions: Hepatitis C virus, Huh-7, 72 h, read-out: GT4a EC50, GT1b/4a NS5B chimeric replicon, Huh-7 cells, luciferase, 72 hours
Procedure: as §1, §4, §3

[8] = tested on: GT1b S96T NS5B mutant replicon; assay: HCV NS5B mutant replicon assay, GT1b S96T; format: cell-based; conditions: Hepatitis C virus, Huh-7, 72 h, read-out: GT1b S96T EC50
Procedure: as §1, §2, §3

[9] = tested on: GT1b/3a NS5B chimeric replicon; assay: HCV replicon assay, GT1b/3a NS5B chimeric replicon, transient transfection; format: cell-based, hepatitis C virus; conditions: read-out: GT3a EC50; GT1b/3a NS5B chimeric replicon, Huh-7 cells, luciferase, 72 hours
Procedure: as §1, §4, §3

[10] = tested on: GT1a S282T NS5B mutant replicon; assay: HCV NS5B mutant replicon assay, GT1a S282T; format: cell-based; conditions: Hepatitis C virus, Huh-7, 72 h, read-out: GT1a S282T EC50
Procedure: as §1, §2, §3

[11] = tested on: GT1b/2a NS5B chimeric replicon; assay: HCV replicon assay, GT1b/2a NS5B chimeric replicon, transient transfection; format: cell-based, hepatitis C virus; conditions: Hepatitis C virus, Huh-7, 72 h, read-out: GT2a EC50, GT1b/2a NS5B chimeric replicon, Huh-7 cells, luciferase, 72 hours
Procedure: as §1, §4, §3

[12] = tested on: GT1b C316N NS5B mutant replicon; assay: HCV NS5B mutant replicon assay, GT1b C316N; format: cell-based; conditions: Hepatitis C virus, Huh-7, 72 h, read-out: GT1b C316N EC50
Procedure: as §1, §2, §3

[13] = Nucleoside phosphoester stability in simulated gastric fluid; format: in vitro ADME; conditions: simulated gastric fluid pH 1.2, 2 μM, 37° C.
Procedure: Test compounds at 2 μM were incubated at 37° C. with simulated gastric fluid (SGF, 0.2% (w/v) sodium chloride in 0.7% (v/v) hydrochloric acid, deionized water, 0.3% pepsin (w/v), pH 1.2). Duplicate samples were used. Samples were removed at 0, 15, 30, 60, 120, 360 and 1440 min, immediately mixed with cold acetonitrile containing internal standard (IS), and stored at −80° C. before analysis. Omeprazole was used as a positive control. Samples were analyzed by LC/MS/MS method, and disappearance of test compound was assessed by comparison of peak area ratios of analyte/IS and reported as % test compound remaining at each time point.

[14] = tested on: GT3a S282T NS5B mutant replicon; assay: HCV NS5B mutant replicon assay, GT3a S282T; format: cell-based; conditions: Hepatitis C virus, Huh-7, 72 h, read-out: GT3a S282T EC50
Procedure: as §1, §4, §2, §3

Huh-7 cells = assay: Toxicity by CytoTox-1 cell proliferation assay (TC50) and selectivity index; format: cell-based; conditions: TC50 by CytoTox-1 cell proliferation assay over replicon EC50, Huh-7 cells
Procedure: as §3

[15] = tested on: GT3a L159F NS5B mutant replicon; assay: HCV NS5B mutant replicon assay, GT3a L159F; format: cell-based; conditions: Hepatitis C virus, Huh-7, 72 h, read-out: GT3a L159F EC50
Procedure: as §1, §4, §2, §3

With `CC(C)(C)SSc1ccccc1CCOP1(=O)OC[C@H]2O[C@@H](n3ccc(N)nc3=O)[C@](C)(F)[C@@H]2O1` (single isomer, unassigned) [Compound 9A] as the compound, how does the pEC50 [1] read?
The pEC50 was 8.00.

What about the pEC50 (GT1b (Con1) HCV replicon) of the same compound?
Its pEC50 is 8.15 and 8.30 to 8.40.

And the “% Remaining” value ([2]; 0 h)?
The value was 100.00%.

What about the “% Remaining” value ([2]; 0.25 h) of the same compound?
Its value is 99.21%.

And the “% Remaining” value ([2]; 0.5 h)?
The value was 103.81%.

What about the “% Remaining” value ([2]; 1 h) of the same compound?
Its value is 103.14%.

What about the “% Remaining” value ([2]; 2 h) of the same compound?
Its value is 109.48%.

And the “% Remaining” value ([2]; 6 h)?
Its value is 101.64%.

And the “% Remaining” value ([2]; 24 h)?
Its value is 98.27%.

And the pEC50 (GT1a (H77) HCV replicon)?
The pEC50 was 8.22 to 8.52.

What about the pEC50 [3] of the same compound?
Its pEC50 is 8.05.

And the pEC50 [4]?
The pEC50 was 8.70.

What about the pEC50 [5] of the same compound?
Its pEC50 is 7.92.

What about the pEC50 [6] of the same compound?
Its pEC50 is 7.60 to 7.64.

What about the pEC50 [7] of the same compound?
The pEC50 was 8.52.

And the pEC50 [8]?
Its pEC50 is 8.15.

What about the pEC50 [9] of the same compound?
The pEC50 was 8.22 and 8.22 to 8.40.

And the pEC50 [10]?
The pEC50 was 7.46 to 8.22.

What about the pEC50 [11] of the same compound?
The pEC50 was 8.52.

What about the pEC50 [12] of the same compound?
Its pEC50 is 8.40.

What about the “% Remaining” value ([13]; 0 min) of the same compound?
The value was 100.00%.

And the “% Remaining” value ([13]; 15 min)?
The value was 107.89%.

What about the “% Remaining” value ([13]; 30 min) of the same compound?
Its value is 102.51%.

What about the “% Remaining” value ([13]; 60 min) of the same compound?
The value was 97.63%.

What about the “% Remaining” value ([13]; 120 min) of the same compound?
Its value is 94.89%.

What about the “% Remaining” value ([13]; 360 min) of the same compound?
Its value is 91.06%.

What about the “% Remaining” value ([13]; 1440 min) of the same compound?
Its value is 76.22%.

And the pEC50 [14]?
The pEC50 was 7.74 to 8.22.

And the “Selectivity Index (TC50/EC50)” value (Huh-7 cells)?
Its value is >500.

What about the pEC50 [15] of the same compound?
Its pEC50 is 8.10.
